Experiments:
Assay type in all cases: functional
Scenedesmus acutus [1] = test: Herbicidal activity against Scenedesmus acutus assessed as growth measured as packed-cell volume per ml of culture at 10^-4 M heterotrophically for 20 hr by phytotoxicity assay (reference value: 1.5 ul pcv/ml)
Scenedesmus acutus [2] = test: Herbicidal activity against Scenedesmus acutus assessed as packed-cell volume per ml of culture at 10^-6 M autotrophically for 20 hr by phytotoxicity assay (reference value: 6.6 ul pcv/ml)
Scenedesmus acutus [3] = test: Herbicidal activity against Scenedesmus acutus assessed as chlorophyll content per ml of packed-cell volume at 10^-4 M autotrophically for 20 hr by phytotoxicity assay (reference value: 5.32 mg/ml pcv)
Scenedesmus acutus [4] = test: Herbicidal activity against Scenedesmus acutus assessed as growth measured as packed-cell volume per ml of culture at 10^-6 M heterotrophically for 20 hr by phytotoxicity assay (reference value: 1.5 ul pcv/ml)
Scenedesmus acutus [5] = test: Herbicidal activity against Scenedesmus acutus assessed as protoporphyrin-IX content per ml of packed-cell volume at 10^-5 M autotrophically for 20 hr by phytotoxicity assay (reference value: 2 nM/ml pcv)
Scenedesmus acutus [6] = test: Herbicidal activity against Scenedesmus acutus assessed as chlorophyll content per ml of packed-cell volume at 10^-4 M heterotrophically for 20 hr by phytotoxicity assay (reference value: 6.52 mg/ml pcv)
Scenedesmus acutus [7] = test: Herbicidal activity against Scenedesmus acutus assessed as protoporphyrin-IX content per ml of packed-cell volume at 10^-6 M autotrophically for 20 hr by phytotoxicity assay (reference value: 2 nM/ml pcv)
Scenedesmus acutus [8] = test: Herbicidal activity against Scenedesmus acutus assessed as chlorophyll content per ml of packed-cell volume at 10^-6 M heterotrophically for 20 hr by phytotoxicity assay (reference value: 6.52 mg/ml pcv)
Scenedesmus acutus [9] = test: Herbicidal activity against Scenedesmus acutus assessed as chlorophyll content per ml of packed-cell volume at 10^-6 M autotrophically for 20 hr by phytotoxicity assay (reference value: 5.32 mg/ml pcv)
Scenedesmus acutus [10] = test: Herbicidal activity against Scenedesmus acutus assessed as chlorophyll content per ml of packed-cell volume at 10^-5 M heterotrophically for 20 hr by phytotoxicity assay (reference value: 6.52 mg/ml pcv)
Scenedesmus acutus [11] = test: Herbicidal activity against Scenedesmus acutus assessed as chlorophyll content per ml of packed-cell volume at 10^-5 M autotrophically for 20 hr by phytotoxicity assay (reference value: 5.32 mg/ml pcv)
Scenedesmus acutus [12] = test: Herbicidal activity against Scenedesmus acutus assessed as packed-cell volume per ml of culture at 10^-4 M autotrophically for 20 hr by phytotoxicity assay (reference value: 6.6 ul pcv/ml)
Scenedesmus acutus [13] = test: Herbicidal activity against Scenedesmus acutus assessed as protoporphyrin-IX content per ml of packed-cell volume at 10^-4 M autotrophically for 20 hr by phytotoxicity assay (reference value: 2 nM/ml pcv)
Scenedesmus acutus [14] = test: Herbicidal activity against Scenedesmus acutus assessed as ethane production per ml of packed-cell volume at 10^-4 M autotrophically for 20 hr by phytotoxicity assay (reference value: 0.28 nM/ml pcv)
Scenedesmus acutus [15] = test: Herbicidal activity against Scenedesmus acutus assessed as ethane production per ml of packed-cell volume at 10^-5 M autotrophically for 20 hr by phytotoxicity assay (reference value: 0.28 nM/ml pcv)
Scenedesmus acutus [16] = test: Herbicidal activity against Scenedesmus acutus assessed as packed-cell volume per ml of culture at 10^-5 M autotrophically for 20 hr by phytotoxicity assay (reference value: 6.6 ul pcv/ml)
Scenedesmus acutus [17] = test: Herbicidal activity against Scenedesmus acutus assessed as ethane production per ml of packed-cell volume at 10^-6 M autotrophically for 20 hr by phytotoxicity assay (reference value: 0.28 nM/ml pcv)
Scenedesmus acutus [18] = test: Herbicidal activity against Scenedesmus acutus assessed as growth measured as packed-cell volume per ml of culture at 10^-5 M heterotrophically for 20 hr by phytotoxicity assay (reference value: 1.5 ul pcv/ml)
Scenedesmus acutus [19] = test: Herbicidal activity against Scenedesmus acutus assessed as growth measured as packed-cell volume per ml of culture at 10^-7 M heterotrophically for 20 hr by phytotoxicity assay (reference value: 1.5 ul pcv/ml)
Scenedesmus acutus [20] = test: Herbicidal activity against Scenedesmus acutus assessed as chlorophyll content per ml of packed-cell volume at 10^-7 M heterotrophically for 20 hr by phytotoxicity assay (reference value: 6.52 mg/ml pcv)

Row | Compound | Activity (Scenedesmus acutus [1]) | Activity (Scenedesmus acutus [2]) | Activity (Scenedesmus acutus [3]) | Activity (Scenedesmus acutus [4]) | Activity (Scenedesmus acutus [5]) | Activity (Scenedesmus acutus [6]) | Activity (Scenedesmus acutus [7]) | Activity (Scenedesmus acutus [8]) | Activity (Scenedesmus acutus [9]) | Activity (Scenedesmus acutus [10]) | Activity (Scenedesmus acutus [11]) | Activity (Scenedesmus acutus [12]) | Activity (Scenedesmus acutus [13]) | Activity (Scenedesmus acutus [14]) | Activity (Scenedesmus acutus [15]) | Activity (Scenedesmus acutus [16]) | Activity (Scenedesmus acutus [17]) | Activity (Scenedesmus acutus [18]) | Activity (Scenedesmus acutus [19]) | Activity (Scenedesmus acutus [20])
1 | NC1=C(Cl)C(=O)c2ccccc2C1=O | 1.1 µL | 4.2 µL | 0 mg | 1.3 µL | 2 nM | 4.76 mg | 2 nM | 5.22 mg | 3.67 mg | 4.76 mg | 0.07 mg | 2.1 µL | 3.5 nM | 10.43 nM | 7.51 nM | 2.6 µL | 0.23 nM | 1.1 µL | – | –
2 | O=C1C2=C(CCCC2)C(=O)N1c1ccc(Cl)cc1 [CHLOROPHTHALIUM] | – | 2.8 µL | – | 1.1 µL | – | – | 23.5 nM | 4.9 mg | 0.25 mg | 2.85 mg | 0.17 mg | – | – | – | – | 2.4 µL | 8.77 nM | 1 µL | 1.3 µL | 6.65 mg
3 | CCC(C)c1cc([N+](=O)[O-])cc([N+](=O)[O-])c1O (stereo unspecified) [DINOSEB] | – | 6.6 µL | – | – | 2 nM | – | 1.5 nM | – | 5.5 mg | – | 5.91 mg | – | – | – | 0.34 nM | 5.3 µL | 0.18 nM | – | – | –
4 | N#Cc1cc(I)c(O)c(I)c1 [IOXYNIL] | – | 6.5 µL | – | – | 2 nM | – | 2.5 nM | – | 5.71 mg | – | 5.82 mg | – | – | – | 0.3 nM | 5.7 µL | 0.22 nM | – | – | –

Source: ChEMBL document CHEMBL3045443, “Mode for Herbicidal Action of 2-Amino-3-chloro-1,4-naphthoquinone (ACN)” (Biosci Biotechnol Biochem, 1994)
